Test [1] has as its target NA of influenza NIBRG14 (H5N1) (Influenza A virus, UniProt Q6DPL2). Type of test: biochemical.
Test [2] addresses Bac-NA^WT (Influenza A virus, UniProt Q6DPL2). Format: biochemical.
Test [3] deals with influenza A/WSN/33 (H1N1). The experiment in a line: microbe, parasite or virus in culture. Format: cell-based. To be noted: MDCK, read-out: EC50 for viral plaque formation.
Test [4] relates to A/Udorn/72 (H3N2). The test is described as follows: microbe, parasite or virus in culture. Type of test: cell-based, influenza A/Udorn/72 (H3N2). The note with it: Influenza A virus, H3N2, MDCK, read-out: EC50 for viral plaque formation.
The subject of test [5] is A/WSN/33. Type of test: cell-based, influenza A/WSN/33 (H1N1).
For test [6], the system named is A/WSN/33 (H1N1). Type of test: cell-based, influenza A/WSN/33 (H1N1).

Structures are written as SMILES.

Bac-NA^WT, sequence (Q6DPL2 63-449 limits assumed): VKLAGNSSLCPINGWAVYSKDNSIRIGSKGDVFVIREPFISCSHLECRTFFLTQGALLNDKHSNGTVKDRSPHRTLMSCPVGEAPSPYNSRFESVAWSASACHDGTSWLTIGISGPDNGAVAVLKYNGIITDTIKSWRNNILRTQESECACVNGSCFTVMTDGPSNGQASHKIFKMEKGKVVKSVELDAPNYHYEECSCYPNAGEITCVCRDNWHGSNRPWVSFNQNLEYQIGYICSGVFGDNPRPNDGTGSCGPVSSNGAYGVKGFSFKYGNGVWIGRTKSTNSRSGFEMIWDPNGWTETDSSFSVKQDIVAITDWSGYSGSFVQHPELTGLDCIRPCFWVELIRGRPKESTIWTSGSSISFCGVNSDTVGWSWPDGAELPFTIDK
NA of influenza NIBRG14 (H5N1), sequence (Q6DPL2 whole entry, looked up): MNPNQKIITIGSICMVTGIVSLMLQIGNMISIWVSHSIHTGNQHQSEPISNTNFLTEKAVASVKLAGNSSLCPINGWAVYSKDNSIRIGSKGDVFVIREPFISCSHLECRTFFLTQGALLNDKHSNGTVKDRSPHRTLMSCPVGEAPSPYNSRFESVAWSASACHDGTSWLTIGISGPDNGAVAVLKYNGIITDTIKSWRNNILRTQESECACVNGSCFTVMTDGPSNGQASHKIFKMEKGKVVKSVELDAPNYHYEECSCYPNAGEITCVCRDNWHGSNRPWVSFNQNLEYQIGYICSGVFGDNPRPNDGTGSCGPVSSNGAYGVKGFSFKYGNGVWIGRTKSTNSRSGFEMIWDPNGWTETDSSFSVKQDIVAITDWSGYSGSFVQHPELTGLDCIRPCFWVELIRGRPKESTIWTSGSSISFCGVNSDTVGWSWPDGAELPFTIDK

As to `Nc1c(S(=O)(=O)O)cc(Nc2cccc(S(=O)(=O)CCOS(=O)(=O)O)c2)c2c1C(=O)c1ccccc1C2=O` [RB19, remazol brilliant blue R], the IC50 in test [1] came to 5.7 µM; in test [2], 3.4 µM. Also, the values for the EC50 in test [3] and in test [4] were 2.7 µM and 2.8 µM, respectively. In test [5], the influenza-induced cytopathic effect entry is given as “inhibited the influenza-induced cytopathic effect”. In test [6], the “virus yields (fluorogenic signal of NA activity)” value is reported as “dramatically reduced virus yields”.

Values taken from US20140194392A1 (priority 2013, published 2014).
